Laboratory results published in BindingDB's records for doi:10.1016/S0960-894X(01)80909-4 (1993).

Assays:
[1] = molecular target: Diamine oxidase (Sus scrofa); assay: Tested for ability to competitively inhibit hog kidney diamine oxidase (DAO) in a spectrometric assay
[2] = molecular target: Diamine oxidase (Sus scrofa); assay: as above; remark: listed apart in the source

| SMILES | Ki [1] [nM] | Ki [2] [nM] |
| --- | --- | --- |
| NCC#Cc1cnc[nH]1 [3-(1H-Imidazol-4-yl)-prop-2-ynylamine] | 1700 | – |
| NCC=Cc1cnc[nH]1 | 170 | 200 |
| C=C(CN)c1cnc[nH]1 [2-(1H-Imidazol-4-yl)-allylamine] | 7100 | – |
